Legend:
[1] = tested on: SK-MEL2 human tumor cells that were transfected with a plasmid containing the murine VEGF gene; assay: Matrigel Angiogenesis Model (hemoglobin content of Matrigel plugs); assay type: in vivo, Mice; details: 30, 100 and 300 mg/kg po sid; 12 days post-implantation; vs. vehicle control animals
Method: Preparation of Matrigel Plugs and in vivo Phase: Matrigel® (Collaborative Biomedical Products, Bedford, MA) is a basement membrane extract from a murine tumor composed primarily of laminin, collagen IV and heparan sulfate proteoglycan. It is provided as a sterile liquid at 4° C, but rapidly forms a solid gel at 37° C.
Liquid Matrigel at 4° C was mixed with SK-MEL2 human tumor cells that were transfected with a plasmid containing the murine VEGF gene with a selectable marker. Tumor cells were grown in vitro under selection and cells were mixed with cold liquid Matrigel at a ratio of 2 X 10^6 per 0.5 ml. […]
Optical densities were determined spectrophotometrically at 600 nm in a 96-well plate reader, SpectraMax 250 Microplate Spectrophotometer System (Molecular Devices, Sunnyvale, CA). Background Lysis Buffer readings were subtracted from all wells.
Total sample hemoglobin content was calculated according to the following equation: Total Hemoglobin = (Sample Lysate Volume) x (Hemoglobin Concentration) [formula]
The average Total Hemoglobin of Matrigel samples without cells was subtracted from each Total Hemoglobin Matrigel sample with cells. Percent inhibition was calculated according to the following equation: % Inhibition =((Average Total Hemoglobin Drug-Treated Tumor Lysates) X 100)/((Average Total Hemoglobin Non-Treated Tumor Lysates)) [formula]

[2] = molecular target: T1, NIH3T3 cells expressing the full length KDR receptor (Homo sapiens, UniProt P35968); assay: Cell mechanistic assay - Inhibition of 3T3 KDR phosphorylation; assay type: cell-based; details: VEGF (30 ng / ml) for 10 minutes after 30 minutes with compound; KDR phosphotyrosine ELISA
T1 construct: NIH3T3 cells expressing the full length KDR receptor; expressed in transfected cells; host or cells: NIH3T3 cells (G418 selection)
T1 sequence (P35968 20-1356): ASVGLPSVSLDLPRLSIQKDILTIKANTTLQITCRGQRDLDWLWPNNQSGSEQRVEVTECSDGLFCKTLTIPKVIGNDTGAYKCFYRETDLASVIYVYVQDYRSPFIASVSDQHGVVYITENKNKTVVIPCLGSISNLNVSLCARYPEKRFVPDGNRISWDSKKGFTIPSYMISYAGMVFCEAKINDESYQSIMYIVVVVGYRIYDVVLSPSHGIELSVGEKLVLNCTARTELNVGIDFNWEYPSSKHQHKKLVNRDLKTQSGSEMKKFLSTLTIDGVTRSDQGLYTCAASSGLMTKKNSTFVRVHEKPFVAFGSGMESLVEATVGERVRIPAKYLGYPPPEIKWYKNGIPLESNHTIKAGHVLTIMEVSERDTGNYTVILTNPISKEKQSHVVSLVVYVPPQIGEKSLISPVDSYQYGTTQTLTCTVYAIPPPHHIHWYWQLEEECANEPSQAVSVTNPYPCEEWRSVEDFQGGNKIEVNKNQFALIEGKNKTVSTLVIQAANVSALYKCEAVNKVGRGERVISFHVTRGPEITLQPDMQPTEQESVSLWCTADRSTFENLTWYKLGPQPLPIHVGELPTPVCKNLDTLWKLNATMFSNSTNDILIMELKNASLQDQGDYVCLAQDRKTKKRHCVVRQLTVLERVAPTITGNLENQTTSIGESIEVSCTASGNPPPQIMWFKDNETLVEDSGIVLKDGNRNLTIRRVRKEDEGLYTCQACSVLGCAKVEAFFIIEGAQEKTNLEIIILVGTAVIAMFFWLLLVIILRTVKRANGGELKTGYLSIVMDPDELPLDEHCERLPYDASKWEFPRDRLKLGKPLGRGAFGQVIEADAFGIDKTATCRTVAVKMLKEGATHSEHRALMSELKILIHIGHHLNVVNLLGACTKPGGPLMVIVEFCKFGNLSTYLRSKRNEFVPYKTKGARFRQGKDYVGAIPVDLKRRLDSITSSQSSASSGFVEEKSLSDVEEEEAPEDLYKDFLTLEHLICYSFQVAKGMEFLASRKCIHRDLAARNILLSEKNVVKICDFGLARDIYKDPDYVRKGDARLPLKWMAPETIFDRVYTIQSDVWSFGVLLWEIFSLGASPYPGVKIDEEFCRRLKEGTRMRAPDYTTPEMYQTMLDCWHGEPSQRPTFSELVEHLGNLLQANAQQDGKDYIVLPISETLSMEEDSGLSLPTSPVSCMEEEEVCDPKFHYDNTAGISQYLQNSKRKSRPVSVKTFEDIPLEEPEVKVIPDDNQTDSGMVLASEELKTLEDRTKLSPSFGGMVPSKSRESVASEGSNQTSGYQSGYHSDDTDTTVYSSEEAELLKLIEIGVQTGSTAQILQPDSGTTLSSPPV
Method: NIH3T3 cells expressing the full length KDR receptor were grown in DMEM (Life Technologies, Inc., Grand Island, NY) supplemented with 10% newborn calf serum, low glucose, 25 mM /L sodium pyruvate, pyridoxine hydrochloride and 0.2 mg/ ml of G418 (Life Technologies Inc., Grand Island, NY). The cells were maintained in collagen I-coated T75 flasks (Becton Dickinson Labware, Bedford, MA) in a humidified 5% CO2 atmosphere at 37°C.
Fifteen thousand cells were plated into each well of a collagen I-coated 96-well plate in the DMEM growth medium. Six hours later, the cells were washed and the medium was replaced with DMEM without serum. After overnight culture to quiesce the cells, the medium was replaced by Dulbecco's phosphate-buffered saline (Life Technologies Inc., Grand Island, NY) with 0.1% bovine albumin (Sigma Chemical Co., St Louis, MO). After adding various concentrations (0-300 nM) of test compounds to the cells in 1% final concentration of DMSO, the cells were incubated at room temperature for 30 minutes. The cells were then treated with VEGF (30 ng / ml) for 10 minutes at room temperature. Following VEGF stimulation, the buffer was removed and the cells were lysed by addition of 150 µl of extraction buffer (50 mM Tris, pH 7.8, supplemented with 10% glycerol, 50 mM BGP, 2 mM EDTA, 10 mM NaF, 0.5 mM NaVO4, and 0.3% TX-100) at 4°C for 30 minutes.
To assess receptor phosphorylation, 100 microliters of each cell lysate was added to the wells of an ELISA plate precoated with 300 ng of antibody C20 (Santa Cruz Biotechnology, Inc., Santa Cruz , CA). Following a 60-minute incubation, the plate was washed and bound KDR was probed for phosphotyrosine using an anti-phosphotyrosine mAb clone 4G10 (Upstate Biotechnology, Lake Placid, NY). The plate was washed and wells were incubated with anti-mouse IgG/HRP conjugate (Amersham International plc, Buckinghamshire, England) for 60 minutes. Wells were washed and phosphotyrosine was quantitated by addtion of 100 µl per well of 3,3',5,5' tetramethylbenzidine (Kirkegaard and Perry, TMB Microwell 1 Component peroxidase substrate) solution. Color development was arrested by the addition of 100 µl 1% HCl based stop solution (Kirkegaard and Perry, TMB 1 Component Stop Solution).
Optical densities (OD) were determined spectrophotometrically at 450 nm in a 96-well plate reader (SpectraMax 250, Molecular Devices). Background (no VEGF added) OD values were subtracted from all ODs and percent inhibition was calculated according to the equation: % Inhibition =((OD(VEGF control) - OD(with test compound)) X 100)/(OD(VEGF control) - OD(no VEGF added)) [formula]
IC50s were determined with a least squares analysis program using compound concentration versus percent inhibition. Compounds that have IC50 < 20 nM in this assay include those of Examples 2, 6, 7, 11, 15 and 16. Compounds that have IC50 values between 20 nM and 50 nM include those of examples 1, 4, 5, 8, 10, 12, 13 and 14. Those that have measured IC50 values > 50 nM include those of examples 9 and 21.

## NC(=O)c1cc(Cc2nnc(Nc3ccc(Cl)cc3)c3ccccc23)ccn1 [Example 2, 4-[4-(4-Chlorophenylamino)phthalazin-1-ylmethyl]pyridin-2-yl carboxylic acid amide]
[1]
  inhibition of total hemoglobin content of the Matrigel samples: > 50%
[2]
  IC50: < 20 nM
